# Values of other authors in patent publication US20220323393A1, “COMPOSITIONS AND METHODS FOR TREATING AND/OR PREVENTING CARDIOVASCULAR DISEASE” (AMARIN PHARMACEUTICALS IRELAND LIMITED, priority 2010, published 2022).
# Test system: subjects with AAMI
# Conditions: 50 mg, Day 21 of repeated dosing
compound,measurement,setting,value
CN[C@@H](C)C/C=C/c1cncc(OC(C)C)c1 [Ispronicline],Benefit to Power of Attention versus placebo,,61 ms
same,"Power of Attention, mean",SD=61.22,-32.54 ms
